Literature values as cited in patent US6458923B1, “Modified position (7) bradykinin antagonist peptides” (Scios Inc., priority 1991, dated 2002).
No end group written: not given here.

What was measured:
pulmonary kininase = conditions: anesthetized rat; intra-aortic vs intravenous administration

Sequence: RPPGFSPFR [Bradykinin, Arg Pro Pro Gly Phe Ser Pro Phe Arg]
- half life in the systemic circulation: less than 30 seconds
- destruction on a single passage through the pulmonary circulation (pulmonary kininase): 98-99%
